Marks after values point to notes of the source that are not given here.
Legend:
[1] = Antioxidant activity measurement (DPPH); format: biochemical; settings: DPPH % after 60 minutes; for DPPH for moiety alone [%] ± SD, n = 3: free moiety, lower = more antioxidant
[2] = Water solubility of the moieties; format: physicochemical; settings: free moiety
[3] = Viscosity and pH of formulations after steam sterilization; format: physicochemical; settings: formulation after steam sterilization
Experimental: The gel is steam sterilized 10 minutes at 121° C. with an entire cycle of 35 minutes. For the viscosity, gels are measured with the rheological program presented before.
The target characteristics are a viscosity after heat sterilization of around 1000 [mPas], neutrality and isotonicity to plasma (around 280 [mOsmol]) in common with state of the art commercial formulations such as Ostenil©.

New-Zealand rabbits = test: Intra-articular biocompatibility test in rabbit; format: in vivo
Experimental: Twelve male New-Zealand rabbits are kept in individual cages 2 weeks after reception before injection. The day of injection, they are anesthetized with Ketamin©/Domitor©, their posterior articulations shaved and disinfected with Vetedine© soap and solution. 200 ul of the selected formulations are injected into the articulations. The rabbit is then revived with Atipam©. The formulations are randomized for rabbits as well as for articulations and injected blindly.
Twice a week, a clinical examination is performed comprising the following points. For the general state; vigilance (at distance from the cage: normal, diminished, sleepy, enhanced), movements (at distance from the cage: normal, diminished), limb ledge (at distance from the cage: yes, no), limp (at distance from the cage: yes, no), hair state: (smooth and shiny, dull, bristling, dirty zones, hairless zones), wound: (yes, no), abnormal secretion: (yes, no), mucosal color: (pink, blade, congested, cyanosed). For the injected joints; swelling (from 0 to 3, 3 being strongest swelling), flow at the injection site (0-3), heat (0-3), palpation pain (from 0 to 3), mobilization pain (0-3), redness (0-3), hematoma (0-3). An echography is also performed under anesthesia comprising the following […] (external lateral, internal lateral and proximal) according to a protocol published in the literature and provides information about the presence of liquid, osteophytes and any severe cartilage erosion. After one month observation, the rabbits are sacrificed with intra-muscular injection of Ketamin©/Domitor© and intra-cardiac Dolethal©. The articulations are dissected and photographed before and after china ink embodiment to assess the state of the rotula, condyl, tibia and trochlea cartilage by a visual analogue scale (VAS) expressed in percentage of the structure degraded and by osteophytis scoring (OS) giving the presence or absence of osteophytes (0: absent, 1: present).
The femoral and tibial parts are fixed in 10% formalin solution and decalcified with Kristenson solution from Chimie-Plus Laboratoire (Denice, France) during several weeks. Samples are cut in two parasagittal sections for medial femoral and tibial condyles (left and right) and then paraffin embedded and sectioned into 4 μm thick slices. Sections were stained with Safranin O-fast green for cartilage. Synovial membranes were fixed in 10% formalin solution, cut in two or three parallel sections, paraffin embedded and sectioned into 4 μm thick slices. Each paraffin block was sectioned in three slides [one stained with hematoxylin, eosin and saffron (HES), and two stained with hematoxylin and eosin (HE)]. Histological features were evaluated in a blinded fashion except for control rabbits. Histological lesions were evaluated and scored according the OARSI histopathology initiative; -recommendations for histological assessments of osteoarthritis in the rabbit (Osteoarthritis and cartilage 18 (2010) S53-S65). Microscopic scoring of cartilage alterations, two sections per condyle were evaluated allowing a semi-quantitative grading. Several parameters were evaluated: Safranin O-fast green staining, structure, chondrocytes density, cluster formation. For microscopic scoring of synovial alterations, three sections per synovial membrane were evaluated, allowing semi-quantitative grading. Several parameters were evaluated: synoviocytes proliferation, synoviocytes hypertrophy, granulocytic infiltration, lymphoplasmacytic infiltration, lymphoplasmacytic aggregates follicles, villous hyperplasia, proliferation of fibroblasts/fibrocytes, proliferation of blood vessels, cartilage/bone detritus presence and hemosiderosis.
The above mentioned formulations were tested in term of intra-articular biocompatibility in the rabbit model; Conjugated HA linked to 4AR (n=4), unconjugated HA mixed with 4AR (n=4), 4AR (n=4) and as controls; physiological serum (n=2), untreated (n=2) and Ostenil© (n=4).

[4] = reference [22]; cited from earlier work
[5] = Viscosity stability in an oxidative environment (Weissberger's oxidative system, CuCl2 + ascorbic acid); settings: gel 1 %
[6] = HA conjugate (native HA), for 4AR first value, 14 % grafting

SMILES: Nc1ccc(O)c(C(=O)O)c1 [5ASA, 5-aminosalicylic acid]
- DPPH [%] ± SD, n = 3 [1, 6]: 67%
- DPPH for moiety alone [%] ± SD, n = 3 [1]: 34%

SMILES: Cc1cc(=O)oc2cc(N)ccc12 [AMC]
- DPPH [%] ± SD, n = 3 [1, 6]: 61%
- DPPH for moiety alone [%] ± SD, n = 3 [1]: 87%
- water solubility (in words) [2]: solubility is low

SMILES: Nc1ccccc1 [Aniline, aniline]
- DPPH [%] ± SD, n = 3 [1, 6]: 95%
- DPPH for moiety alone [%] ± SD, n = 3 [1]: 36%
- water solubility (in words) [2]: high water solubility

SMILES: Nc1ccc(O)cc1O [4AR, 4-aminoresorcinol]
- DPPH [%] ± SD, n = 3 ([1]; 4AR conjugate with 57 % grafting (second value of the cell)): 37%
- DPPH [%] ± SD, n = 3 [1, 6]: 71%
- DPPH for moiety alone [%] ± SD, n = 3 [1]: 28%
- pH [3]: 7.25
- Tibia OS (New-Zealand rabbits; 0 absent, 1 present, one month): 0%
- Trochlea OS (New-Zealand rabbits; 0 absent, 1 present, one month): 0%
- Rotula OS (New-Zealand rabbits; 0 absent, 1 small osteophyte present, one month): 0%
- Condyl OS, ext (New-Zealand rabbits; external, 0 absent, 1 present, one month): 0/0%
- Condyl VAS score, ext (New-Zealand rabbits; external, one month): 0/0%
- Tibia VAS score, ext (New-Zealand rabbits; external, one month): 0***/0*** %
- Condyl OS, int (New-Zealand rabbits; internal, 0 absent, 1 present, one month): 0/0%
- Condyl VAS score, int (New-Zealand rabbits; internal, one month): 0/0%
- Tibia VAS score, int (New-Zealand rabbits; internal, one month): 0***/0*** %
- Meniscus lesion (int/ext) (New-Zealand rabbits; one month): 0
- Synvovial membrane Fibrosis (New-Zealand rabbits; one month): 0
- Synvovial membrane Inflamation (New-Zealand rabbits; one month): 0
- Trochlea VAS score (New-Zealand rabbits; one month): 0-10* %
- Rotula VAS score (New-Zealand rabbits; percentage of structure degraded, one month after 200 ul intra-articular): 0%
- intra-articular biocompatibility (in words) (New-Zealand rabbits; single injection, one month evaluation): no sign of non-biocompatibility
- cytotoxicity (in words) [4]: potent cytotoxic agent
- gain of viscosity ([5]; during the 36 minutes of measurement, Weissberger oxidative system, n=1): 40%

SMILES: CCOC(=O)[C@@H](N)CS [EECyst, ethylester cysteine]
- DPPH [%] ± SD, n = 3 [1, 6]: 41%
- DPPH for moiety alone [%] ± SD, n = 3 [1]: 6%

SMILES: Nc1ccc(C(=O)O)c(O)c1 [4ASA, 4-aminosalicylic acid]
- DPPH [%] ± SD, n = 3 [1, 6]: 96%
- DPPH for moiety alone [%] ± SD, n = 3 [1]: 27%
- water solubility (in words) [2]: low water solubility

SMILES: NCCc1ccc(O)cc1 [Tyr, tyramin]
- DPPH [%] ± SD, n = 3 [1, 6]: 92%
- DPPH for moiety alone [%] ± SD, n = 3 [1]: 85%
- viscosity behaviour / degradation in oxidative environment (in words) ([5]; CuCl2 + ascorbic acid): more degraded than HA itself

Source: patent US20150306237A1, “HYALURONIC ACID-ANTIOXIDANT CONJUGATES AND THEIR USES” (priority 2012, published 2015)
